Our source for the IC50 values is US8754079B2, “Cycloalkyl containing thienopyrimidines for pharmaceutical compositions” (Boehringer Ingelheim International GmbH, priority 2010, dated 2014).

T1 sequence (Q9HBH9 whole entry): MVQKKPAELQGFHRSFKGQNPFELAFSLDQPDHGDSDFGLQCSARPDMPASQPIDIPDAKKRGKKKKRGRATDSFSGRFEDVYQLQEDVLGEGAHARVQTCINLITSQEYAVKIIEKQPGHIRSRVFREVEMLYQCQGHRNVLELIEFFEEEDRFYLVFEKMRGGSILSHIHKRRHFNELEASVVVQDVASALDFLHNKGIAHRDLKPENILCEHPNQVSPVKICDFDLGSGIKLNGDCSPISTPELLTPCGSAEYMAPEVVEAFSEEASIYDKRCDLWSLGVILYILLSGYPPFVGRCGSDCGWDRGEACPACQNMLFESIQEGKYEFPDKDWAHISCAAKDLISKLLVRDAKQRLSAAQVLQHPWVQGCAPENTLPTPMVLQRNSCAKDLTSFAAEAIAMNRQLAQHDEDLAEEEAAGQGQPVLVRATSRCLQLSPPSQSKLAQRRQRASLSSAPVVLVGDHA

The assay concerns the target T1, MNK2 (Homo sapiens, UniProt Q9HBH9).
T1 construct: the open reading frames of human Mnk1 and Mnk2a were amplified from cDNA; made in house; host or cells: E. coli BL21
The assay can be described thus: Mnk2a in vitro kinase assay (indirect fluorescence polarization). It counts as biochemical. The conditions noted are these: pre-activated GST-Mnk2a 2.5 nM, 20 μM ATP, 30 μM substrate peptide. The procedure:
Inhibitory potency of compounds against Mnk1, Mnk2a and other kinases was assessed with assays based on a format known to those skilled in the art as the indirect (competitive) fluorescence polarization. The assay detection system comprises a small fluorophore-labeled phospho-peptide (termed ligand) bound to a phospho-specific antibody. The product generated by the kinase reaction competes with the ligand for antibody binding. Based on the larger molecular volume of the bound ligand, which results in a lower rotation rate in solution, its emitted light has a higher degree of polarization than the one from the free ligand.
Example 2a. Mnk1 and Mnk2a in vitro kinase assay
As a source of enzyme, human Mnk1 and human Mnk2a were expressed as GST fusion proteins in E. coli, purified to >80% homogeneity by glutathione affinity chromatography and activated in vitro with pre-activated ERK2. In brief, the open reading frames of human Mnk1 and Mnk2a were amplified from cDNA using the forward/reverse primer pairs
(utilized restriction sites underlined), respectively, and cloned into the BamHI and SalI sites of the vector pGEX-4T1 (Amersham, Sweden, cat. no. 27-4580-01). These constructs allow prokaryotic expression of Mnk1 or Mnk2a as fusion protein with a N-terminal glutathione S-transferase (GST) tag, referred to as GST-Mnk1 or GSTMnk2a. The following expression and purification procedure was identical for GSTMnk1 and GST-Mnk2a, referring in general to GST-Mnk, when not distinguishing between the two isoforms. Expression of GST-Mnk was in E. coli BL21 (Merck Biosciences, Germany, cat. no. 69449). Cells were grown in LB-Bouillon (Merck, Germany, cat. no. 1.10285) supplemented with 100 μg/ml ampicillin (Sigma, Germany, cat. no. A9518) at 37° C. When the culture had reached a density corresponding to an A600 of 0.8, an equal volume of ice cold LB/ampicillin was added, the culture transferred to 25° C. and induced for 4 h with 1 mM isopropyl thiogalactoside (IPTG, Roth, Germany, cat. no. 2316.4). Cells harvested by centrifugation were resuspended in 10 ml lysis buffer (50 mM tris(hydroxymethyl)aminomethane hydrochloride (Tris/HCl, Sigma, Germany, cat. no. T5941) pH 7.5, 300 mM sodium chloride (NaCl, Sigma, Germany, cat. no. S7653), 5% (w/v) glycerol (Sigma, Germany, cat. no. G5516), 3 mM DTT dithiotreitol (DTT, Sigma, Germany, cat. no. D9779)) per gram wet weight cell pellet. Lysates were prepared by disruption of cells with a sonifier and subsequent clearing by centrifugation at 38000 g for 45 min at 4° C.
The lysate was applied to a GSTPrep FF 16/10 column (Amersham, Sweden, cat. no. 17-5234-01) equilibrated with lysis buffer. Removal of unbound material was with 3 column volumes (CV) lysis buffer. Elution was with 2 CV of elution buffer (50 mM Tris/HCl pH 7.5, 300 mM NaCl, 5% (w/v) glycerol, 20 mM glutathione (Sigma, Germany, cat. no. G4251)). Peak fractions were pooled and the protein transferred into storage buffer (50 mM Tris/HCl pH 7.5, 200 mM NaCl, 0.1 mM ethylene glycolbis(2-aminoethylether)-N,N,N′,N′-tetraacetic acid (EGTA, Aldrich, Germany, cat. no. 23, 453-2), 1 mM DTT, 10% (w/v) glycerol, 0.5 M sucrose (Sigma, Germany, cat. no. S0389) by gel filtration on a PD10 desalting column (Amersham, Sweden, cat. no. 17-0851-01). Aliquots were shock frozen in liquid nitrogen and stored at −80° C.
Activation of Mnk1 and Mnk2a was at a concentration of 2.5 μM of either purified GST-Mnk1 or GST-Mnk2a by incubation with 150 nM pre-activated NHis-ERK2 (see ERK2 assay for preparation) and 50 μM adenosine triphosphate (ATP, Sigma, cat. no. A2699) in a buffer comprising 20 mM N-(2-hydroxyethyl)piperazine-N′-(2-ethanesulfonic acid) (HEPES, Fluka, Germany, cat. no 54459)/potassium hydroxide (KOH, Roth, Germany, cat. no 6751.1) pH 7.4, 10 mM magnesium chloride (MgCl2, Sigma, Germany, cat. no. M2670), 0.25 mM DTT, 0.05% (w/v) polyoxyethylene 20 stearylether (Brij 78, Sigma, Germany, cat. no. P4019) (HMDB buffer) for 45 min at 30° C. […]
For the molecule `CO[C@@H]1CCC[C@@H](Oc2ncccc2Nc2ncnc3sc(C(=O)NCCCN4CCCC4)c(C)c23)C1` (racemic) [Example 148], the IC50 amounted to 49 nM. As to `Cc1c(C(N)=O)sc2ncnc(Nc3ccc(F)cc3O[C@@H]3CCC[C@H]4OC(C)(C)O[C@@H]34)c12` (relative stereo) [Example 1], half-maximal inhibition (IC50) required 13 nM. `Cc1c(C(N)=O)sc2ncnc(Nc3ccc(F)cc3O[C@@H]3CCC[C@@H](O)[C@H]3O)c12` (relative stereo) [Example 2] gave an IC50 of 21 nM. The result for `CN[C@H]1CCC[C@@H](Oc2cc(F)ccc2Nc2ncnc3sc(C(N)=O)c(C)c23)C1` (relative stereo) [Example 17, 4-(4-Fluoro-2-(cis-3-(N-methylamino)cyclohexyloxy)phenylamino)-5-methylthieno[2,3-d]pyrimidine-6-carboxamide] reads 28 nM; that for `CN[C@H]1CCC[C@H](Oc2cc(F)ccc2Nc2ncnc3sc(C(N)=O)c(C)c23)C1` (relative stereo) [Example 18, 4-(4-Fluoro-2-(trans-3-(N-methylamino)cyclohexyloxy)phenylamino)-5-methylthieno[2,3-d]pyrimidine-6-carboxamide], 36 nM; that for `COC(=O)c1sc2ncnc(Nc3ccc(F)cc3OC3C[C@@H](O)C[C@H](O)C3)c2c1C` (relative stereo) [Example 30.1], 9 nM. Take `CO[C@H]1CCC[C@@H](Oc2ncccc2Nc2ncnc3sc(C(=O)NCC4COCCN4)c(C)c23)C1` (relative stereo) [Example 120]: it took 33 nM to reach half-maximal inhibition (IC50). In turn, `CO[C@H]1CCC[C@@H](Oc2ncccc2Nc2ncnc3sc(C(=O)NCC(C)O)c(C)c23)C1` (relative stereo) [Example 125] returned a half-maximal inhibitory concentration (IC50) of 44 nM. Under `CO[C@H]1CCC[C@@H](Oc2ncccc2Nc2ncnc3sc(C(=O)NCCCO)c(C)c23)C1` (relative stereo) [Example 126] stands 23 nM; under `CO[C@@H]1CCC[C@@H](Oc2ncccc2Nc2ncnc3sc(C(=O)NCC4CNCCO4)c(C)c23)C1` (relative stereo) [Example 140], 49 nM; under `CO[C@@H]1CCC[C@@H](Oc2ncccc2Nc2ncnc3sc(C(=O)NCCO)c(C)c23)C1` (relative stereo) [Example 143], 77 nM. In the case of `Cc1c(C(N)=O)sc2ncnc(Nc3ccc(F)cc3OC3C[C@@H](O)[C@H](O)C3)c12` (relative stereo) [Example 211], the IC50 stood at 8 nM. For the molecule `Cc1c(C(N)=O)sc2ncnc(Nc3ccc(F)cc3O[C@@H]3CC[C@@H](O)[C@H]3O)c12` (relative stereo) [Example 221], 10 nM corresponded to half-maximal inhibition (IC50).

Turning to `Cc1c(C(=O)NCCCN(C)C)sc2ncnc(Nc3ccc(F)cc3O[C@@H]3CC[C@@H](O)[C@H]3O)c12` (relative stereo) [Example 222], 41 nM corresponded to half-maximal inhibition (IC50). As to `Cc1c(C(N)=O)sc2ncnc(Nc3ccc(F)cc3O[C@@H]3CC[C@H](O)[C@@H]3O)c12` (relative stereo) [Example 223], the IC50 worked out at 18 nM. As for `Cc1c(C(N)=O)sc2ncnc(Nc3ccc(F)cc3O[C@@H]3CCC[C@@H]3O)c12` (relative stereo) [Example 224], the IC50 was 8 nM. The result for `COC(=O)[C@H](CO)NC(=O)c1sc2ncnc(Nc3ccc(F)cc3O[C@H]3CC[C@H](OC)CC3)c2c1C` (relative stereo) [Example 272, 2-({-4-[4-Fluoro-2-(trans-4-methoxy-cyclohexyloxy)-phenylamino]-5-methyl-thieno[2,3-d]pyrimidine-6-carbonyl}-amino)-3-hydroxy-propionic acid methyl ester] reads 33 nM; that for `COC(=O)c1sc2ncnc(Nc3ccc(F)cc3O[C@@H]3CCCC[C@@H]3O)c2c1C` (single isomer, unassigned) [Example 256, 4-[4-fluoro-2-(cis-2-hydroxy-cyclohexyloxy)-phenylamino]-5-methyl-thieno[2,3-d]pyrimidine-6-carboxylic acid methyl ester], 1290 nM; that for `COC(=O)c1sc2ncnc(Nc3ccc(F)cc3O[C@H]3CCCC[C@H]3O)c2c1C` (single isomer, unassigned) [Example 257, 4-[4-fluoro-2-(cis-2-hydroxy-cyclohexyloxy)-phenylamino]-5-methyl-thieno[2,3-d]pyrimidine-6-carboxylic acid methyl ester], 141 nM. Molecule `Cc1c(C(=O)O)sc2ncnc(Nc3ccc(F)cc3O[C@@H]3CCCC[C@@H]3O)c12` (single isomer, unassigned) [Example 258, 4-[4-fluoro-2-(cis-2-hydroxy-cyclohexyloxy)-phenylamino]-5-methyl-thieno[2,3-d]pyrimidine-6-carboxylic acid] returned an IC50 of 110 nM. With `Cc1c(C(=O)NC2CCN(C)CC2)sc2ncnc(Nc3ccc(F)cc3OC3CCCCC3O)c12` (single isomer, unassigned) [Example 259], the IC50 was 346 nM.

`Cc1c(C(=O)NCCCN2CCCC2)sc2ncnc(Nc3ccc(F)cc3OC3CCCCC3O)c12` (single isomer, unassigned) [Example 260] came in with an IC50 of 255 nM.

As to `Cc1c(C(=O)O)sc2ncnc(Nc3ccc(F)cc3O[C@H]3CCCC[C@H]3O)c12` (single isomer, unassigned) [Example 262, 4-[4-fluoro-2-(cis-2-hydroxy-cyclohexyloxy)-phenylamino]-5-methyl-thieno[2,3-d]pyrimidine-6-carboxylic acid], the IC50 amounted to 23 nM. Regarding `Cc1c(C(=O)NC2CCN(C)CC2)sc2ncnc(Nc3ccc(F)cc3OC3CCCCC3O)c12` (single isomer, unassigned) [Example 265], the midpoint of inhibition, the IC50, lay at 54 nM.

Consider `Cc1c(C(N)=O)sc2ncnc(Nc3ccc(F)cc3O[C@H]3CC[C@H](NS(C)(=O)=O)CC3)c12` [Example 3, 4-[4-Fluoro-2-(trans-4-methanesulfonylamino-cyclohexyloxy)-phenylamino]-5-methyl-thieno[2,3-d]pyrimidine-6-carboxylic acid amide], for which the IC50 came out at 10 nM. With `Cc1c(C(N)=O)sc2ncnc(Nc3ccc(F)cc3O[C@H]3CC[C@H](N(C)S(C)(=O)=O)CC3)c12` [Example 4, 4-(4-Fluoro-2-(trans-4-(N-methylmethylsulfonamido)cyclohexyloxy)phenylamino)-5-methylthieno[2,3-d]pyrimidine-6-carboxamide], the IC50 amounted to 23 nM. The result for `CC(=O)N[C@H]1CC[C@H](Oc2cc(F)ccc2Nc2ncnc3sc(C(N)=O)c(C)c23)CC1` [Example 5, 4-(2-(trans-4-acetamidocyclohexyloxy)-4-fluorophenylamino)-5-methylthieno[2,3-d]pyrimidine-6-carboxamide] reads 3 nM; that for `CC(=O)N[C@H]1CC[C@H](Oc2cc(F)ccc2Nc2ncnc3sc(C(=O)NCCCN(C)C)c(C)c23)CC1` [Example 6], 7 nM. Under `CC(=O)N(C)[C@H]1CC[C@H](Oc2cc(F)ccc2Nc2ncnc3sc(C(N)=O)c(C)c23)CC1` [Example 7] stands 7 nM.
